# Literature values, collected in patent publication EP0266006A2, “Novel hypotensive diuretic peptides” (SHIONOGI SEIYAKU KABUSHIKI KAISHA trading under the name of …, priority 1986, dated 1988).
# Where no end group is shown, it is not given here.
# Conditions: said to be so, unlike α type or γ type
substance,measurement,value
"β-hANP: antiparallel dimer of α-hANP (SLRRSSCFGGRMDRIGAQSGLGCNSFRY; ends and bridges not checked; also: antiparallel dimer of α-hANP; UniProt P01160 124-151, looked up)",diuretic action (duration),persistent
